Target: Dopamine receptor (Bos taurus) (UniProt Q95136+P20288)
Experiment: Ability to enhance the binding of [3H]- ADTN to dopamine receptor from freshly dissected bovine caudate
Format: protein assay

Enhancement [%] | Structure (SMILES)
200 | NC(=O)[C@H]1CS[C@@H]2C[C@@H](NC(=O)C3CCCN3)C(=O)N12 (some centres not stated)
75 | NC(=O)[C@H]1CS[C@@H]2CC[C@@H](NC(=O)C3CCCN3)C(=O)N12 (some centres not stated)

Reference: ChEMBL document CHEMBL1126764, “Bicyclic thiazolidine lactam peptidomimetics of the dopamine receptor modulating peptide Pro-Leu-Gly-NH2” (J Med Chem, 1993)
